In patent US20020048566A1, “Modulation of cellular apoptosis and methods for treating cancer” (priority 2000, published 2002):
Residues, ends and D or L forms follow the SMILES beside them. *: point of attachment. Cbz = O=C(OCc1ccccc1)*; CH2F = FC*

Assays:
Type in all cases: cell-based, human
[1] = system: adrenal carcinoma cell line SW13; test: FACS for active caspase 3 after p53 transfection with irreversible caspase inhibitors; conditions: inhibitor 20 μM added four hours after transfection, harvested at 24 hours
Protocol: Transfections and fluorescence-activated cell sorting (FACS) analysis. Transfections were carried out as previously described (Wu et al., 1997). In brief, before transfection, 5×10^5 cells/6 cm well were seeded. The cells were transfected with lipofectamine Plus. Four hours after transfections the media was changed and an irreversible caspase inhibitor, Z-IETD-FMK (caspase 8) or Z-LEHD-FMK (caspase 9) was added to the media at a final concentration of 20 μM. Cells were harvested 24 hours after transfection and prepared for detection of active-caspase 3 by flow cytometry as previously described (Ozoren et al., 2000). For adenoviral experiments, cells were harvested 48 hours after infection and fixed and stained with propidium iodide as previously described (Ozoren et al., 2000). Cell sorting was performed.
FIG. 5. Infection of colon carcinoma cell line SW480 and breast carcinoma cell line SKBr3 with Ad-p53 results in caspase cleavage and apoptosis. (a) Western blot analysis for PARP cleavage after adenovirus infection. SW480 and SKBr3 cell lines were infected with an MOI of 50 with either Ad-LacZ or Ad-p53 and harvested at 0, 24 and 48 hours after infection. […] (b) Western blot analysis of caspase 8 and 9 cleavage after adenovirus infection. […]

SW480 cell lines = test: FACS sub-G1 content after Ad-p53 infection of SW480 stably overexpressing c-FLIP-s or Bcl-XL; conditions: stable overexpression, 48 hours after infection
Description: Cell culture and adenoviral/retroviral infection. The culture conditions for SW480, HCT 116, and SkBr3 were maintained as previously described (Wu et al., 1997). The adrenal carcinoma cell line, SW13 was a kind gift from R. Sheikhattar (Wistar Institute). Ad-LacZ and Ad-p53 were obtained from B. Vogelstein (Johns Hopkins University) All adenoviruses were propagated, titered, and amplified as previously described (El-Deiry et al., 1993). The retroviral vector pLIB, pLIB-EGFP, pLIB-c-Flip-s, or pLIB-Bcl-XL was cotransfected with pVSVG and pCgP (Dr. Michael Malim, University of Pennsylvania) into 293T cells using the CaPO4 method. The resulting supernatant was used to infect the SW480 cell line (3×10^5 cell/well plated 48 hours before infection) at a titer necessary to obtain greater than 90% infectivity as previously described (Fouchier et al., 1997).
Transfections and fluorescence-activated cell sorting (FACS) analysis. Transfections were carried out as previously described (Wu et al., 1997). In brief, before transfection, 5×10^5 cells/6 cm well were seeded. The cells were transfected with lipofectamine Plus. Four hours after transfections the media was changed and an irreversible caspase inhibitor, Z-IETD-FMK (caspase 8) or Z-LEHD-FMK (caspase 9) was added to the media at a final concentration of 20 μM. […]

SW480 cells [2] = test: Blue cell assay (cotransfection with pCMVb gal, relative cell survival); conditions: for Blue cells % of vector: blue cells counted after 40 hours, vector-transfected blue cells set to 100% survival
Protocol: Blue Cell Method. The blue cell method was performed as previously described (Meng, R. D., et al., Mol. Ther. 1:130-144 (2000)). Calculations for Table I were carried out by setting the number of vector-transfected blue cells to 100% (at least 300 cells for each independent experiment), and the wild-type and point mutants were determined as a percentage of vector transfected.
Conserved Hydrophobic Residues Are More Critical for Apoptotic Signaling as Compared with Conserved Charged Positions in the KILLER/DR5 DD. In order to functionally characterize the mutant receptors, this study employed three methods to assess cell death following transfection. The first method involved cotransfection of the mutant receptor along with pCMVb gal. Blue cells were counted after 40 hours in order to determine relative cell survival as compared with vector-transfected cells (number of blue cells for vector was set as equivalent to 100% survival; Table I). To specifically measure apoptosis, this study used a cotransfection based flow cytometric assay to functionally assess apoptotic signaling of each substitution mutant. Each mutant was cotransfected with an EGFP-spectrin construct at a 10:1 ratio (mutant plasmid:EGFP-spectrin plasmid) into SW480 cells for 18 hours and the presence of a sub-G1 peak was used to quantitate apoptotic signaling. The use of the spectrinbound GFP allowed for the identification of specifically transfected cells, and the spectrin fusion permits cell membrane retention of GFP even if cells lose membrane permeability due to cell death (Kalejta, R. F., et al., Mol. Ther. 1:130-144 (2000)). […] One example of a signaling-competent and -incompetent mutant is also shown for comparison. Table II lists the results of three independent experiments for each mutant compared with the wild-type protein after subtracting out transfection-induced death.

SW480 cells [3] = test: GFP-spectrin/PI flow cytometry for sub-G1 peak after transient transfection; design: key to Apoptotic ability (Table II): WT, able to induce apoptosis as well as wild-type protein; ±, 20-25% reduction in ability to induce apoptosis; −, completely deficient in ability to induce apoptosis
Protocol: GFP/PI Fluorescence-activated Cell Sorting Analysis for Sub-G1 Peak. SW480 cells were transfected with a 1:10 ratio of EGFP-spectrin (Kalejta, R. F., et al., Mol. Ther. 1:130-144 (2000)) and KILLER/DR5 expression plasmid. Transfections were harvested at 18 hours after transfection, processed, and analyzed for the presence of a sub-G1 peak as described previously (Ozoren, N., et al., Int. J. Oncol. 16:917-925 (2000)). 10,000 GFP-positive cells were analyzed per experiment, and three independent experiments were performed for each mutant. Percentage of apoptosis was calculated by subtracting transfection-induced sub-G1 peak (vector transfection) from each wild-type or mutant KILLER/DR5 sub-G1 peak. Figures for Tables II and III were generated by setting wild-type death to 100% (˜40% sub-G1 peak at 18 hours) in order to compare point mutants to the wild-type protein.
(§1) Conserved Hydrophobic Residues Are More Critical for Apoptotic Signaling as Compared with Conserved Charged Positions in the KILLER/DR5 DD. In order to functionally characterize the mutant receptors, this study employed three methods to assess cell death following transfection. The first method involved cotransfection of the mutant receptor along with pCMVb gal. Blue cells were counted after 40 hours in order to determine relative cell survival as compared with vector-transfected cells (number of blue cells for vector was set as equivalent to 100% survival; Table I). To specifically measure apoptosis, this study used a cotransfection based flow cytometric assay to functionally assess apoptotic signaling of each substitution mutant. Each mutant was cotransfected with an EGFP-spectrin construct at a 10:1 ratio (mutant plasmid:EGFP-spectrin plasmid) into SW480 cells for 18 hours and the presence of a sub-G1 peak was used to quantitate apoptotic signaling. […]

SW480 cells [4] = test: PARP cleavage Western blot after transient transfection; conditions: 16 hours after transfection
Protocol: Transfections, in Vitro Translation, and Western Blotting. The colon cancer cell line SW480 was maintained and transfected as described previously (Wu, G. S., et al., Nat. Genet. 17:141-143 (1997)). Protein extracts were harvested in 1×Laemmli sample buffer 16 hours after transfection. PARP and Myc immunoblots were performed following SDS-polyacrylamide gel electrophoresis. Horseradish peroxidase-conjugated secondary antibody (1:5000) treatments were followed by enhanced chemiluminescence. In vitro translation reactions were carried out using 1 μg of wild-type or mutant KILLER/DR5 plasmid DNA and a T7-coupled reticulocyte lysate system.
as §1, with “The first method involved cotransfection of the mutant receptor along with pCMVb gal.” left out, “To specifically measure apoptosis, this study used a cotransfection based flow cytometric assay to functionally assess apoptotic signaling of each substitution mutant.” left out

[5] = system: TRAIL DISC (FADD and caspase 8 recruitment) in 293 HEK cells; test: TRAIL DISC immunoprecipitation; conditions: 16 hours transfection, then 50 ng/ml His-tagged TRAIL 15 minutes at 37° C.
Protocol: TRAIL DISC Immunoprecipitation. 293 HEK cells were plated to achieve 80% confluence at the time of transfection in a T75. 30 ug of the indicated KILLER/DR5 plasmid was transfected by calcium phosphate for 16 hours to minimize loss of transfected cells. The cells were then trypsinized, spun down, and resuspended in 2 ml of complete medium supplemented with 50 ng/ml His tagged-TRAIL and 1 μg/ml anti-6-histidine antibody for 15 minutes at 37° C. For untreated samples, only the TRAIL was excluded. The cells were washed twice with ice-cold phosphate-buffered saline and lysed for 30 minutes on ice in TRAIL DISC IP lysis buffer (30 mM Tris, pH 7.5, 150 mM NaCl, 10% glycerol, 1% Triton X-100). The lysates were cleared twice by centrifugation at 4° C. The supernatants were immunoprecipitated overnight with 30 μl of agarose at 4° C. to isolate the TRAIL DISC. The complexes were subsequently washed four times with TRAIL DISC IP lysis buffer and eluted with elution buffer with 0.1 M dithiothreitol at room temperature for 2 hours. The protein complexes were methanol/chloroform-precipitated and resolved on 15% SDS-polyacrylamide gels. […]
293 HEK cells were chosen due to their ability to be transfected and relative resistance to TRAIL-induced apoptosis. […] The DISC was then immunoprecipitated and analyzed for the presence of the exogenous KILLER/DR5 receptor along with FADD and caspase 8. […]

## CC[C@H](C)[C@H](NC(=O)OCc1ccccc1)C(=O)N[C@@H](CCC(=O)OC)C(=O)N[C@H](C(=O)N[C@@H](CC(=O)OC)C(=O)CF)[C@@H](C)O [Z-IETD-FMK] (Cbz-IE(OMe)TD(OMe)-CH2F)
[1]
  inhibition of p53-dependent apoptosis (activated caspase 3): could be inhibited

## COC(=O)CC[C@H](NC(=O)[C@H](CC(C)C)NC(=O)OCc1ccccc1)C(=O)N[C@@H](Cc1cnc[nH]1)C(=O)N[C@@H](CC(=O)OC)C(=O)CF [Z-LETD-FMK, Z-LEHD-FMK] (Cbz-LE(OMe)HD(OMe)-CH2F)
[1]
  inhibition of p53-dependent apoptosis (activated caspase 3): could be inhibited

## Bcl-XL: stably over-expressed Bcl-XL, specific inhibitor of caspase 9 activation
SW480 cell lines
  inhibition of p53-mediated death after Ad-p53 infection (sub-G1): partially inhibit

## K388A: KILLER/DR5 death domain alanine point mutant
SW480 cells [2]
  Blue cells % of vector: 9 ± 1.5 % of vector
SW480 cells [3]; 18 hours after transfection
  Apoptotic ability (Table II): WT
SW480 cells [3]; 18 hours after transfection, transfection-induced death subtracted, wild-type death set to 100%, three independent experiments
  Sub-G1 peak % WT (alanine scanning mutants): 101 ± 11.3 % WT

## Wild-type KILLER/DR5: wild-type TRAIL receptor KILLER/DR5, Myc-His tagged expression construct
SW480 cells [2]
  Blue cells % of vector: 8 ± 0.2 % of vector
SW480 cells [2]; text summary of Table I
  blue cell staining retained: 8%
SW480 cells [3]; at 18 hours, absolute value set as 100% wild-type death
  sub-G1 peak: ~40%
SW480 cells [4]
  PARP cleavage: efficiently caused PARP cleavage
[5]
  FADD and caspase 8 recruitment to TRAIL DISC: robust recruitment of both FADD and caspase 8
